Measurements from publication PMC3439875 (Nucleic Acids Research, 2012).

Molecular target: variola topoisomerase (Variola virus, UniProt P32989)
Type: biochemical

Sequence of variola topoisomerase (P32989 whole entry, looked up): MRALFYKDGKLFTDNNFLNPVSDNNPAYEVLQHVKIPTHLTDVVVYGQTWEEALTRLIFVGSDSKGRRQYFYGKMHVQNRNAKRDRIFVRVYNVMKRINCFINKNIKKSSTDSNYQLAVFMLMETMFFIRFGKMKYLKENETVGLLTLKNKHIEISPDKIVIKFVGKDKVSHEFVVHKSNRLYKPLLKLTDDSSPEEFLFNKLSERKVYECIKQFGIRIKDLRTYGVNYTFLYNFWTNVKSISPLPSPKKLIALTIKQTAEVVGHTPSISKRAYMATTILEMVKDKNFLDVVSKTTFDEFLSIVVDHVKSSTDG

CCOC(=O)c1c(O)c2cc(-c3cccc(OC)n3)cnc2n(O)c1=O [Compound 7]
Inhibition of variola topoisomerase activity: no inhibitory activity
